Laboratory results published in US20090163406A1, “COMPOSITIONS AND METHODS FOR DIAGNOSING AND TREATING BRAIN CANCER AND IDENTIFYING NEURAL STEM CELLS” (THE REGENTS OF THE UNIVERSITY OF CALIFORNIA, priority 2004, published 2009).
“Also recorded” adds a separate entry of the source.

Assays:
[1] = tested on: neural progenitors cultured from E12 mouse telencephalic germinal zones; assay: Cell number and cell cycle of attached E12 telencephalic neural progenitors in bFGF
[2] = tested on: primary cerebellar granule cells precursors (CGPs); assay: Cell cycle analysis and cell counts in cultured cerebellar granule cell precursors; type: cell-based, mouse; conditions: for fraction of cells in S-phase: CGP with mitogen, 50 uM, 24 hours, flow cytometric DNA content
Procedure: FIG. 9F: described below. […] Yellow circle indicates normally cycling cells.
Culture of Cerebellar Granule Cell Precursors: Cerebella were harvested from P6-P8 CD1 mouse pups and digested in Papain with DNase, and dissociated in PBS BSA with fire polished pipettes followed by a cell strainer. Granule cell precursors were then separated on a 35%/65% percoll step gradient at 1500 g for 12 minutes as previously described (Wechsler-Reya, supra (1999)). Cells were either transfected at this point or plated at 250K cells/well onto Poly-L-Lysine coated glass coverslips in 24 well plates in 330 uls of Neurobasal Media containing 2% B27 supplement, 1 mM sodium pyruvate, 2 mM glutamine, and 1% penicillin/streptomycin, supplemented with 2.5 ug/ml mouse recombinant Sonic Hedge Hog (R&D systems 461-5H-025) as noted in the text, above.
Cell counts: For immunocytochemistry, all cells in 10 random 40× fields were counted. For the stem cell ablation experiments we used stereo investigator to count all PBK/TOPK cells in the SEZ ventral to the anterior horn at the level of the anterior commissure bilaterally in 3 replicate animals. T-tests were performed in Microsoft Excel.

Daoy cells = assay: Daoy medulloblastoma cell growth (total cell number); type: cell-based, human; conditions: cyclopamine alone or combined with MELK siRNA
Procedure: Transient Transfection. […] For transfection of plasmid vectors, the cells were incubated with reagents for 6 hours with the primary progenitor cells, and for 24 hours with N2a cells. […] Incubation with siRNA complex was 6 hours with primary cells and 24 hours with cell lines.
We then examined whether the effect of MELK siRNA is for cell survival or cell proliferation.
Propium iodide-labeled tumor populations were measured for cell death assay after treatment of siRNA for two days (e).

[3] = tested on: dividing GFAP positive cells; assay: Ganciclovir ablation in GFAP promoter HSV-TK transgenic mice, SEZ immunohistochemistry; type: in vivo, mouse; conditions: 21 days ganciclovir, vs non-transgenic controls
From the text: PBK/TOPK positive cells are mitotically active progenitors in vivo: The expression pattern in vitro as a mitotically active kinase, coupled with in vivo data, provided evidence that PBK/TOPK was expressed in several mitotically active progenitor cell populations in the central nervous system, but not in quiescent, slower cycling putative stem cells. To more conclusively establish PBK/TOPK expression in stem and progenitor cells in vivo, we examined PBK/TOPK in transgenic mice expressing the herpes simplex virus thymidine kinase gene (HSV-TK) under control of the GFAP promoter (see, e.g., Bush, T. G., et al., Neuron (1999) 23:297-308; Garcia, supra (2004)). Since HSV-TK phosphorylates the drug ganciclovir and phosphorylated ganciclovir kills cells at mitosis, when these mice are given ganciclovir, all dividing GFAP positive cells are killed. […] Three transgenic mice were treated for 21 days with ganciclovir followed by BrdU injections for two days, and then processed for immunohistochemistry. […] This finding provided direct in vivo evidence that PBK/TOPK positive cells arise from proliferating GFAP positive cells, consistent with PBK/TOPK being expressed exclusively by proliferating progenitor cells in the adult brain. […]
Cell counts: For immunocytochemistry, all cells in 10 random 40× fields were counted. […]

[4] = CGP, twenty-four hours of P38 inhibition

**Q.** For `C[S+]([O-])c1ccc(-c2nc(-c3ccncc3)c(-c3ccc(F)cc3)[nH]2)cc1` (centres unmarked) [SB203580], which “cycling cells assessed by flow cytometry” value ([1]; in the presence of bFGF) is on record?
**A.** decrease in cycling cells

**Q.** What about the DNA aneuploidy ([1]; long exposures or high doses, 48 hours at highest dose) of the same compound?
**A.** resulted in DNA aneuploidy; also recorded: accumulation of DNA-aneuploid cells

**Q.** And the cell number ([1]; varying doses, in the presence of bFGF)?
**A.** dose dependant decrease in proliferation; also recorded: dose dependant decrease in cell number

**Q.** What about the “fraction of cells in S-phase” value [2] of the same compound?
**A.** reduces fraction of S-Phase cells; also recorded: dramatic decrease in the fraction of cells in S-phase

**Q.** What about the “fraction of cells in S-phase” value ([2]; listed as sb203580) of the same compound?
**A.** significant decrease in the number of cells re-entering S-phase

**Q.** What about the “cell number in the absence of mitogen” value ([2]; CGP without mitogen treatment) of the same compound?
**A.** no impact on cell number

**Q.** And the “number of NeuN positive cells” value [2, 4]?
**A.** without significantly impacting; also recorded: without any impact

**Q.** And the “number of PBK/TOPK positive cells” value [2, 4]?
**A.** reduces PBK/TOPK positive cells; also recorded: reduction in the number of the PBK/TOPK positive cells

**Q.** And the “total number of cells” value ([2]; proliferating neuronal progenitors)?
**A.** decrease in the total number of cells

**Q.** For `CC1=C2C[C@H]3[C@@H](CC=C4C[C@@H](O)CC[C@@]43C)[C@@H]2CC[C@]12O[C@@H]1C[C@H](C)CN[C@H]1[C@H]2C` [cyclopamine], which “Daoy cell growth / proliferation with shh-Gli1 pathway inhibitor” value (Daoy cells) is on record?
**A.** inhibition of cell growth

**Q.** With `Nc1nc(O)c2ncn(COC(CO)CO)c2n1` [ganciclovir] as the compound, how does the “Dcx positive cells in SEZ” value [3] read?
**A.** complete ablation
